Entries after “also recorded” stand apart in the source; their conditions may differ.
Columns and labels:
[1] = test system: β-galactosidase (lacZ) expressed in NIH 3T3 cells; conditions: for color of cells expressing lacZ after staining with the substrate: histochemical staining
Method: (§1) FIG. 1 depicts a schematic of the CMV abfA expression vector. […] NIH 3T3 cells were transfected with CMV-abfA and 30 hours later were fixed with 2% formaldehyde, 0.2% glutaraldehyde for 5 minutes and then processed for histochemical detection of abfA expression using a standard protocol for lacZ detection (5), but substituting Z-ara (0.02%) for X-gal. The synthesis for Z-ara is described in Example 3. Just like X-gal, Z-ara is a colorless water-soluable chromogen that forms an insoluable blue precipitate upon hydrolysis. […] Alternative β-galactosidase substrates to X-gal, 6-chloro-3-indolyl-β-D-galactopyranaside (“Red-gal,” Research Organics, Cleveland, Ohio, USA) and 5-bromo-6-chloro-3-indolyl-β-D-galactopyranoside (“Magenta-gal,” BioSynth AG, Switzerland), allow LacZ^+ cells to appear red instead of blue and thus easily distinguishable from Z-ara positive cells.
(§2) To determine whether α-L-arabinofuranosidase and β-galactosidase could be detected both in the same cell, NHI 3T3 cells were co-transfected with CMV-abfA and with proBGN (7), a plasmid encoding the lacZ gene tagged with a nuclear localization signal. […] One day after transfection cells were fixed followed by in situ visualization of β-galactosidase and α-L-arabinofuranosidase activities by incubation with 0.02% Magenta-gal and 0.02% Z-ara, respectively. Imaging was with a Leica DMR microscope mounted with an Optronics Magnafire digital camera.

[2] = molecular target: T1, α-L-arabinofuranosidase (S. lividans abfA gene) expressed in NIH 3T3 cells (Streptomyces lividans, UniProt P53627); experiment: histochemical (in situ) detection of abfA expression in transfected mammalian cells with chromogenic substrate; type: cell-based; conditions: for color of cells expressing abfA after staining with the substrate: NIH 3T3 cells transfected with CMV-abfA, fixed 30 hours later, substrate 0.02% in lacZ detection protocol
T1 construct: expressed in transfected cells; host or cells: NIH 3T3 cells transfected with CMV-abfA (pcDNA3 backbone)
T1 sequence (P53627 1-662): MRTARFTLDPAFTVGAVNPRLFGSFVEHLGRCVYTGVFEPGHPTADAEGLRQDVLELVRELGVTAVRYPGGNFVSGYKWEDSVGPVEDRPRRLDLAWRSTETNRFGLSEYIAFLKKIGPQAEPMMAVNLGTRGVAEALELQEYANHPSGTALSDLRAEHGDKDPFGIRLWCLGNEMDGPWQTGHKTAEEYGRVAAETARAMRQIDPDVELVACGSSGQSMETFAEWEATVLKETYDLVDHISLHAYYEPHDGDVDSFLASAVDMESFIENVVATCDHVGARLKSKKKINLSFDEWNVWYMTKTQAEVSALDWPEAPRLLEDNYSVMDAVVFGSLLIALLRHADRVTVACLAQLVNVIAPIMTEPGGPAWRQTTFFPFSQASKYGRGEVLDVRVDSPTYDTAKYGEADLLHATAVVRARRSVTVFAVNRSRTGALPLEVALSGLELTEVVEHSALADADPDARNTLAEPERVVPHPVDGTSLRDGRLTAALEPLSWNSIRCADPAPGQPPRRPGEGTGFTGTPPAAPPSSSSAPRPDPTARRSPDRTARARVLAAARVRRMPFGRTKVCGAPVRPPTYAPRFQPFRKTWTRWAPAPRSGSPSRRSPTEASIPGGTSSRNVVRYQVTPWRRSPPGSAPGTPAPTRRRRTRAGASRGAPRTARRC
Method: as §1
One feature of the Z-ara substrate is that the 5-bromo-3-indoloxyl-derived final product has birefringent properties.
as §2

[3] = solubility of the chromogen in water; type: physicochemical; conditions: unhydrolysed chromogen; forms insoluable blue precipitate upon hydrolysis

| Molecule | color of cells expressing lacZ after staining with the substrate [1] | staining from lacZ expression in co-transfected cells (dual detection) ([1]; NIH 3T3 co-transfected with CMV-abfA and proBGN (nuclear-localizing β-galactosidase), one day after transfection, 0.02% substrate, FIGS. 2(C), 2(D)) | subcellular location of staining in abfA-expressing cells ([2]; NIH 3T3, CMV-abfA, FIG. 2(A)) | appearance of stained AbfA+ cells under polarized light ([2]; NIH 3T3, CMV-abfA, polarized light, FIG. 2(B)) | color of cells expressing abfA after staining with the substrate [2] | staining from abfA expression in co-transfected cells (dual detection) ([2]; NIH 3T3 co-transfected with CMV-abfA and proBGN, one day after transfection, 0.02% substrate, FIGS. 2(C), 2(D)) | solubility in water [3] |
| --- | --- | --- | --- | --- | --- | --- | --- |
| 5-bromo-6-chloro-3-indolyl-β-D-galactopyranoside [Magenta-gal] | red | red nucleus | – | – | – | – | – |
| OC[C@H]1O[C@@H](Oc2c[nH]c3ccc(Br)cc23)C(O)C1O (stereo partly drawn) [Z-ara, 5-bromo-3-indolyl-α-arabinofuranoside] | remain colorless | – | predominantly cytoplasmic | distinct yellow birefringence | dark blue | blue cytoplasm | water-soluable |
| OC[C@H]1O[C@@H](Oc2c[nH]c3cc(Cl)ccc23)[C@H](O)[C@@H](O)[C@H]1O [Red-gal, 6-chloro-3-indolyl-β-D-galactopyranaside] | red | – | – | – | – | – | – |
| OC[C@H]1O[C@@H](Oc2c[nH]c3ccc(Br)c(Cl)c23)[C@H](O)[C@@H](O)[C@H]1O [X-gal, 5-bromo-4-chloro-3-indolyl-β-D-galactosidase] | – | – | – | – | no color change; also recorded: no blue staining | – | water-soluable |

Reference: patent US20060094031A1, “Alpha-L-arabinofuranosidase histochemical reporter gene assay” (Stowers Institute for Medical Research, priority 2004, published 2006)
